The assay concerns L1210 leukemia ip in BDF1 mice, survival T/C. The assay is described as follows: NCI In Vivo Anticancer Drug Screen. Data for tumor model L1210 Leukemia (intraperitoneal) in B6D2F1 (BDF1) mice. The note with it: endpoint: mean survival time, higher = longer survival. A digest of the protocol:
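Survival endpoint. Drug-treated group vs vehicle group, expressed as T divided by C. Tumor passaged by transplantation.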

Where [1] appears, read: dose: 50.0 mg/kg/injection, schedule: Q01DX001 (ip), vehicle: Klucel (hydroxypropylcellulose) (HPC).
Where [2] appears, read: dose: 200.0 mg/kg/injection, schedule: Q01DX001 (ip), vehicle: Klucel (hydroxypropylcellulose) (HPC).
[3] abbreviates: dose: 100.0 mg/kg/injection, schedule: Q01DX009 (ip), vehicle: Klucel (hydroxypropylcellulose) (HPC).
[4] abbreviates: dose: 200.0 mg/kg/injection, schedule: Q01DX009 (ip), vehicle: Klucel (hydroxypropylcellulose) (HPC).
[5] abbreviates: dose: 400.0 mg/kg/injection, schedule: Q01DX009 (ip), vehicle: Klucel (hydroxypropylcellulose) (HPC).
The mark [6] stands for this setting: dose: 100.0 mg/kg/injection, schedule: Q04DX002 (ip), vehicle: Klucel (hydroxypropylcellulose) (HPC).
The mark [7] stands for this setting: dose: 100.0 mg/kg/injection, schedule: Q04DX003 (ip), vehicle: Klucel (hydroxypropylcellulose) (HPC).
Where [8] appears, read: dose: 200.0 mg/kg/injection, schedule: Q04DX002 (ip), vehicle: Klucel (hydroxypropylcellulose) (HPC).
Where [9] appears, read: dose: 200.0 mg/kg/injection, schedule: Q04DX003 (ip), vehicle: Klucel (hydroxypropylcellulose) (HPC).
Where [10] appears, read: dose: 400.0 mg/kg/injection, schedule: Q04DX002 (ip), vehicle: Klucel (hydroxypropylcellulose) (HPC).
Setting [11] is: dose: 400.0 mg/kg/injection, schedule: Q04DX003 (ip), vehicle: Klucel (hydroxypropylcellulose) (HPC).
[12] abbreviates: dose: 100.0 mg/kg/injection, schedule: Q01DX001 (ip), vehicle: Klucel (hydroxypropylcellulose) (HPC).
Where [13] appears, read: dose: 100.0 mg/kg/injection, schedule: Q01DX001 (ip), vehicle: saline.
[14] abbreviates: dose: 200.0 mg/kg/injection, schedule: Q01DX001 (ip), vehicle: saline.
Setting [15] is: dose: 400.0 mg/kg/injection, schedule: Q01DX001 (ip), vehicle: saline.

“And” between values parts separate entries of the source, which are not always exact repeats. Equal entries are not always repeated. Inconclusive results and toxic doses are left out.

For the compound `CC1CN1C(=O)Nc1cccc2c(NC(=O)N3CC3C)cccc12` (stereo not drawn), the T/C is 95 % of control (dose: 1.58 mg/kg/injection, schedule: Q01DX009 (ip), vehicle: Klucel (hydroxypropylcellulose) (HPC)); 101 % of control (dose: 2.38 mg/kg/injection, schedule: Q01DX009 (ip), vehicle: Klucel (hydroxypropylcellulose) (HPC)); 122 % of control (dose: 12.34 mg/kg/injection, schedule: Q01DX009 (ip), vehicle: Klucel (hydroxypropylcellulose) (HPC)); 117 % of control (dose: 12.5 mg/kg/injection, schedule: Q04DX003 (ip), vehicle: Klucel (hydroxypropylcellulose) (HPC)); 105 % of control (dose: 35.0 mg/kg/injection, schedule: Q04DX003 (ip), vehicle: Klucel (hydroxypropylcellulose) (HPC)); 118 % of control and 121 % of control under setting [1]. Besides, the T/C is, setting by setting: (dose: 50.0 mg/kg/injection, schedule: Q04DX003 (ip), vehicle: Klucel (hydroxypropylcellulose) (HPC)) 157 % of control; (dose: 55.0 mg/kg/injection, schedule: Q04DX003 (ip), vehicle: Klucel (hydroxypropylcellulose) (HPC)) 207 % of control; (dose: 75.0 mg/kg/injection, schedule: Q01DX001 (ip), vehicle: Klucel (hydroxypropylcellulose) (HPC)) 119 % of control; (dose: 75.0 mg/kg/injection, schedule: Q04DX003 (ip), vehicle: Klucel (hydroxypropylcellulose) (HPC)) 117 % of control; (dose: 85.0 mg/kg/injection, schedule: Q01DX009 (ip), vehicle: Klucel (hydroxypropylcellulose) (HPC)) 89 % of control; (dose: 85.0 mg/kg/injection, schedule: Q04DX003 (ip), vehicle: Klucel (hydroxypropylcellulose) (HPC)) 116 % of control. Also, the T/C was 118 % of control (dose: 170.0 mg/kg/injection, schedule: Q04DX003 (ip), vehicle: Klucel (hydroxypropylcellulose) (HPC)) and 88 % of control under setting [2].

For `CC(=O)c1cccc(NC(=O)Oc2ccc(-c3ccccc3)cc2Cl)c1`, the T/C under setting [3] is 98 % of control, the T/C under setting [4] is 97 % of control and the T/C under setting [5] is 106 % of control.

On to `O=c1[nH]cnc2cc(Cl)ccc12`, for which the T/C is, setting by setting: (dose: 50.0 mg/kg/injection, schedule: Q01DX009 (ip), vehicle: Klucel (hydroxypropylcellulose) (HPC)) 91 % of control; under setting [3], 102 % of control; under setting [4], 100 % of control.

On to `CN(Cc1cnc2nc(NCNC(=O)C3=C(O)[C@@]4(O)C(=O)C5=C(O)c6c(O)cccc6[C@@](C)(O)[C@H]5C[C@H]4[C@H](N(C)C)C3=O)nc(N)c2n1)c1ccc(C(=O)NC(CCC(=O)O)C(=O)O)cc1` (stereo partly drawn), for which the T/C was 213 % of control (dose: 1.5 mg/kg/injection, schedule: Q01DX015 (ip), vehicle: saline); 219 % of control (dose: 3.0 mg/kg/injection, schedule: Q01DX015 (ip), vehicle: saline); 163 % of control (dose: 6.0 mg/kg/injection, schedule: Q01DX015 (ip), vehicle: saline); 107 % of control (dose: 12.0 mg/kg/injection, schedule: Q01DX015 (ip), vehicle: saline); 87 % of control (dose: 24.0 mg/kg/injection, schedule: Q01DX015 (ip), vehicle: saline).

As to `ClCCN(CCCl)CCCNCCCNc1c2ccccc2nc2c1ccc1ccccc12`, the T/C (dose: 0.08 mg/kg/injection, schedule: Q01DX Z (ip), vehicle: saline) was 102 % of control; the T/C (dose: 0.16 mg/kg/injection, schedule: Q01DX Z (ip), vehicle: saline) is 106 % of control; the T/C (dose: 0.31 mg/kg/injection, schedule: Q01DX Z (ip), vehicle: saline) was 110 % of control; the T/C (dose: 0.62 mg/kg/injection, schedule: Q01DX Z (ip), vehicle: saline) is 112 % of control; the T/C (dose: 1.25 mg/kg/injection, schedule: Q01DX Z (ip), vehicle: saline) was 102 % of control; the T/C (dose: 2.5 mg/kg/injection, schedule: Q01DX Z (ip), vehicle: saline) is 97 % of control.

Regarding `COc1ccc(NC(=O)NCCN(C)c2ccccc2)cc1`, the T/C by setting is: under setting [3], 93 % of control and 90 % of control; under setting [6], 96 % of control and 101 % of control and 107 % of control; under setting [7], 98 % of control; under setting [4], 97 % of control and 104 % of control; under setting [8], 98 % of control and 100 % of control and 104 % of control; under setting [9], 101 % of control. Also, the T/C under setting [5] was 100 % of control and 101 % of control; the T/C under setting [10] is 96 % of control and 101 % of control and 103 % of control; the T/C under setting [11] is 98 % of control.

Turning to `O=[N+]([O-])c1ccc(C2=NC(c3ccccc3)CO2)cc1` (stereo not drawn), the T/C was 96 % of control under setting [1], 112 % of control under setting [12] and 94 % of control under setting [2].

In the case of `O=C(NC(=S)Nc1cccc(Cl)c1)c1ccc(Cl)cc1Cl`, the T/C under setting [12] is 87 % of control; the T/C under setting [3] was 87 % of control; the T/C under setting [6] was 115 % of control; the T/C under setting [7] was 97 % of control; the T/C under setting [4] was 97 % of control and 87 % of control; the T/C under setting [8] was 93 % of control. Also, the T/C under setting [9] is 103 % of control; the T/C under setting [5] was 87 % of control and 92 % of control; the T/C under setting [10] was 94 % of control; the T/C under setting [11] was 108 % of control.

Regarding `CCCC[Si](Cl)(CCCC)CCCC`, the T/C (dose: 50.0 mg/kg/injection, schedule: Q01DX009 (ip), vehicle: saline) is 90 % of control; the T/C under setting [13] is 95 % of control; the T/C (dose: 100.0 mg/kg/injection, schedule: Q01DX009 (ip), vehicle: saline) is 92 % of control; the T/C under setting [14] was 108 % of control; the T/C (dose: 200.0 mg/kg/injection, schedule: Q01DX009 (ip), vehicle: saline) is 90 % of control; the T/C under setting [15] was 90 % of control.

`CCC(O)(CC)C(=O)Nc1ccccc1`: the T/C runs as follows: (dose: 50.0 mg/kg/injection, schedule: Q01DX001 (ip), vehicle: saline) 98 % of control; under setting [13], 104 % of control; under setting [14], 96 % of control; under setting [15], 102 % of control.

Regarding `CCC(C)OP(=S)(S)OC(C)CC` (stereo not drawn) (tested in a mixture with another compound), the T/C is 96 % of control (dose: 100.0 mg/kg/injection, schedule: Q04DX002 (ip), vehicle: saline); 99 % of control (dose: 200.0 mg/kg/injection, schedule: Q04DX002 (ip), vehicle: saline); 96 % of control (dose: 400.0 mg/kg/injection, schedule: Q04DX002 (ip), vehicle: saline).

Consider `Nc1ncc(CCCOc2ccccc2)c(=O)[nH]1`, for which the T/C was 96 % of control (dose: 100.0 mg/kg/injection, schedule: Q04DX003 (ip), vehicle: saline with Tween-80); 98 % of control (dose: 200.0 mg/kg/injection, schedule: Q04DX003 (ip), vehicle: saline with Tween-80); 93 % of control (dose: 400.0 mg/kg/injection, schedule: Q04DX003 (ip), vehicle: saline with Tween-80).

Take `Clc1cc2c(cc1CO/N=C\c1ccc3c(c1)OCO3)OCO2`: the T/C is 90 % of control (dose: 100.0 mg/kg/injection, schedule: Q04DX003 (ip), vehicle: saline sonified) and 88 % of control (dose: 200.0 mg/kg/injection, schedule: Q04DX003 (ip), vehicle: saline sonified).

`O=C(Nc1ccc(Cl)cc1)c1ccc([N+](=O)[O-])cc1`: the T/C (dose: 100.0 mg/kg/injection, schedule: Q04DX002 (ip), vehicle: gum acacia) was 106 % of control; the T/C (dose: 200.0 mg/kg/injection, schedule: Q04DX002 (ip), vehicle: gum acacia) is 102 % of control; the T/C (dose: 400.0 mg/kg/injection, schedule: Q04DX002 (ip), vehicle: gum acacia) was 98 % of control.

For the compound `CC(C)(CO)C(O)C(=O)NCCC(=O)c1ccccc1` (stereo not drawn), the T/C was 103 % of control under setting [13], 92 % of control under setting [14] and 103 % of control under setting [15].

For `CC[N+](C)(CC)CCC[N+]1(C)CC2CC=CCC2C1` (stereo not drawn), the T/C is 103 % of control (dose: 55.0 mg/kg/injection, schedule: Q01DX Z (ip), vehicle: saline); 97 % of control (dose: 83.0 mg/kg/injection, schedule: Q01DX Z (ip), vehicle: saline); 96 % of control (dose: 125.0 mg/kg/injection, schedule: Q01DX Z (ip), vehicle: saline).

For the compound `CCN(C(=O)Nc1ccc([N+](=O)[O-])cc1OC)c1cccc(C)c1`, the T/C reads like this: under setting [3], 94 % of control; under setting [4], 97 % of control; under setting [5], 100 % of control.

(Values after PubChem BioAssay AID248 (DTP/NCI, 2004).)
